Tests used:
ROCK2 [1] = target: T1, ROCK2 (Homo sapiens, UniProt O75116); experiment: MLC phosphorylation in MDA-MB-231 cells expressing doxycycline-induced ROCK2 kinase domain (quantitative western blot); design: The kinase domains of MRCKβ (1–473), ROCK1 (1–535) or ROCK2 (1–532) were gene synthesized; expressed in transfected cells; host or cells: MDA-MB-231 D3H2LN-Luc Tet3G cells, pTRE3G-ROCK2 (1–532); conditions: doxycycline-induced MDA-MB-231, 60 minutes treatment; read-out: cell based EC50, MLC phosphorylation induced by ROCK2
Experimental: (A) MDA-MB-231 breast cancer cells expressing doxycycline inducible ROCK1, ROCK2 or MRCKβ kinase domains were established as indicated. Following treatment with doxycycline for 18 hours to induce expression, cell lysates were western blotted with antibodies as indicated.
(§1) MDA-MB-231 D3H2LN-Luc cells (Caliper LifeScience) were grown in MEM/EBSS (Hyclone) supplemented with 10% fetal bovine serum (FBS) (Gibco), 1 mM Sodium Pyruvate (Sigma) 2 mM L-glutamine (Gibco), 1× MEM non-essential amino acids (Gibco) plus penicillin-streptomycin (10 Units/ml and 10 μg/ml respectively) at 37°C in 5% CO2 in a humidified incubator. MDA-MB-231 D3H2LN-Luc TetOn MRCKβ, ROCK1 and ROCK2 selective cell lines were grown in the same media with 10% FBS replaced with 10% Tet System Approved FBS (Clontech).
(§2) The kinase domains of MRCKβ (1–473), ROCK1 (1–535) or ROCK2 (1–532) were gene synthesized (Genscript) and subcloned into pTRE3G (Clontech). MDA-MB-231 D3H2LN-Luc Tet3G cells were co-transfected with pTRE3G-MRCKβ (1–473), pTRE3G-ROCK1 (1–535) or pTRE3G-ROCK2 (1–532), together with a linear Pur^r-selection marker using Xfect transfection reagent according to manufacturer’s instructions. […] Each clone was treated with or without doxycycline (1 μg/ml) for 24 hours and kinase domain expression and activity determined by western blotting. […]
Target sequence in this assay (O75116 1-532): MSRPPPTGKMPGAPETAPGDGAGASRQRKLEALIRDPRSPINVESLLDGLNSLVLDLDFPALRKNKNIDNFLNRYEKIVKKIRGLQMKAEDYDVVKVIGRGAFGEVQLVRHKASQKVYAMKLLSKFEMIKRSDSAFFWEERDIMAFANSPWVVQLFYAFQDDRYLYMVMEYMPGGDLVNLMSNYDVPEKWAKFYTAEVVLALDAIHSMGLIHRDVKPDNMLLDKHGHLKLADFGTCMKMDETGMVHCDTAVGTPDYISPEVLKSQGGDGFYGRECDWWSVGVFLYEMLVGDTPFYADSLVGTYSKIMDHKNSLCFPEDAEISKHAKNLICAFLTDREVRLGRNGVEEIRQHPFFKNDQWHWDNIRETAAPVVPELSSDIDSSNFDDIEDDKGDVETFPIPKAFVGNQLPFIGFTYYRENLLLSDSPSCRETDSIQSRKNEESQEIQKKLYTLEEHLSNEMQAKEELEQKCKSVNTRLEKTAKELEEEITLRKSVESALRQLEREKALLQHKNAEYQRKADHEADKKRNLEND

ROCK1 = ROCK1 (Homo sapiens, UniProt Q13464); experiment: MLC phosphorylation in MDA-MB-231 cells expressing doxycycline-induced ROCK1 kinase domain (quantitative western blot); design: The kinase domains of MRCKβ (1–473), ROCK1 (1–535) or ROCK2 (1–532) were gene synthesized; expressed in transfected cells; host or cells: MDA-MB-231 D3H2LN-Luc Tet3G cells, pTRE3G-ROCK1 (1–535); conditions: doxycycline-induced MDA-MB-231, 60 minutes treatment; read-out: cell based EC50, MLC phosphorylation induced by ROCK1
Experimental: (A) MDA-MB-231 breast cancer cells expressing doxycycline inducible ROCK1, ROCK2 or MRCKβ kinase domains were established as indicated. Following treatment with doxycycline for 18 hours to induce expression, cell lysates were western blotted with antibodies as indicated. […] All results are shown as mean ± standard error of n = 4 independent replicates.
as §1, §2

ROCK2 [2] = target: T1, ROCK2; experiment: IMAP fluorescence polarization kinase assay, ROCK2; format: biochemical; design: purchased Life Technologies; conditions: in vitro, 1 μM ATP
Experimental: MRCKα, MRCKβ, ROCK1 and ROCK2 assays were performed using an IMAP fluorescence polarization assay format (Molecular Devices Inc.). 8–12 nM of each kinase (Life Technologies) was incubated for 60 min at room temperature with 100 nM FAM-S6-ribosomal protein derived peptide (synthesized by Alta Biosciences, University of Birmingham UK) in the presence of 1 μM ATP and 0.5 mM MgCl2 in 20 mM Tris buffer (pH 7.4) containing 0.01% Tween-20 and 1 mM DTT (MRCKα and β); or 1 μM ATP, 10 mM MgCl2 in 20 mM Tris buffer (pH 7.5) containing 0.25 mM EGTA 0.01% Triton X-100 and 1 mM DTT (ROCK1 and ROCK2). Typically, dose response analyses were performed over concentration ranges from 0.005 - 100 μM. Reactions were stopped by adding 2 assay volumes of 0.25% (v/v) IMAP binding reagent in 1× IMAP binding buffer A (Molecular Devices). After 30 min incubation to allow binding reagent to bind phosphorylated peptide, fluorescence polarization was measured on a Tecan Saphire^2 plate reader at excitation (470 nm) and emission (530 nm) wavelengths. Inhibition was calculated using no inhibitor and no enzyme controls as 0 and 100% inhibition, respectively.
Target sequence in this assay (O75116 whole entry, the tested form may be a part): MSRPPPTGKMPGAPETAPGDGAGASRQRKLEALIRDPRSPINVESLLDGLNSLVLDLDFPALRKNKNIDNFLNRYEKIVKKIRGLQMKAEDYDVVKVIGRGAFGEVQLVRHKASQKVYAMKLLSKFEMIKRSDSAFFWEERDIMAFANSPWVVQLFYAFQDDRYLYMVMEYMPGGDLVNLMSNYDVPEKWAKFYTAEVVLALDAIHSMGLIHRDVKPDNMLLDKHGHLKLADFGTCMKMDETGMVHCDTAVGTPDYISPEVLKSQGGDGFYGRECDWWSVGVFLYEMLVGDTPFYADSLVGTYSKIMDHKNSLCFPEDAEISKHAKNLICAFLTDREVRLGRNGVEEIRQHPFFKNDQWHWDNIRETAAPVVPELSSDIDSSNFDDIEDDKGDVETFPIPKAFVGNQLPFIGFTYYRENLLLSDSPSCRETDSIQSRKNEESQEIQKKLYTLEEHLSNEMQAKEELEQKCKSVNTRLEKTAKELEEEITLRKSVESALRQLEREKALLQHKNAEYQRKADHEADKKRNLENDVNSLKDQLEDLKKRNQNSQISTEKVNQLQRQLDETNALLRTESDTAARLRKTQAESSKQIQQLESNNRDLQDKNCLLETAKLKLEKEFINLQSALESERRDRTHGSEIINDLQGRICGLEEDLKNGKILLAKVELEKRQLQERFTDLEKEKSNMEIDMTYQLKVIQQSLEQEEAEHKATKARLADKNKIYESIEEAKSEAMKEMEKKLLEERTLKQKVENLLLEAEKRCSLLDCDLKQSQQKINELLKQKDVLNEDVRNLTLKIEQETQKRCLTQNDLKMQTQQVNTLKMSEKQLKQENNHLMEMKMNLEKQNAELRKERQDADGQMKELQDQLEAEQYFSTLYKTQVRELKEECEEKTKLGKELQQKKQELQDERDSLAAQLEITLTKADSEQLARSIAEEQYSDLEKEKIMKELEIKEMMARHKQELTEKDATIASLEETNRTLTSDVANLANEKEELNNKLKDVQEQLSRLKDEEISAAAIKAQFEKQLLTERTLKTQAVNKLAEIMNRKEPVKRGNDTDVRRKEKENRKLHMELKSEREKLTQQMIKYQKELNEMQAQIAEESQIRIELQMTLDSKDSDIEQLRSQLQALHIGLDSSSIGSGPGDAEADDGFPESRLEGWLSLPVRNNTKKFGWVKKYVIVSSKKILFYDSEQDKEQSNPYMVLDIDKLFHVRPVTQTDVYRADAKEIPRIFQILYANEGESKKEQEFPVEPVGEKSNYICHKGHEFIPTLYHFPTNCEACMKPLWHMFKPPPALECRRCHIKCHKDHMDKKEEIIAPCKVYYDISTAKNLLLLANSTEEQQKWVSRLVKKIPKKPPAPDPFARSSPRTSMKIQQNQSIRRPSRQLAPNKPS

ROCK1, sequence (Q13464 1-535): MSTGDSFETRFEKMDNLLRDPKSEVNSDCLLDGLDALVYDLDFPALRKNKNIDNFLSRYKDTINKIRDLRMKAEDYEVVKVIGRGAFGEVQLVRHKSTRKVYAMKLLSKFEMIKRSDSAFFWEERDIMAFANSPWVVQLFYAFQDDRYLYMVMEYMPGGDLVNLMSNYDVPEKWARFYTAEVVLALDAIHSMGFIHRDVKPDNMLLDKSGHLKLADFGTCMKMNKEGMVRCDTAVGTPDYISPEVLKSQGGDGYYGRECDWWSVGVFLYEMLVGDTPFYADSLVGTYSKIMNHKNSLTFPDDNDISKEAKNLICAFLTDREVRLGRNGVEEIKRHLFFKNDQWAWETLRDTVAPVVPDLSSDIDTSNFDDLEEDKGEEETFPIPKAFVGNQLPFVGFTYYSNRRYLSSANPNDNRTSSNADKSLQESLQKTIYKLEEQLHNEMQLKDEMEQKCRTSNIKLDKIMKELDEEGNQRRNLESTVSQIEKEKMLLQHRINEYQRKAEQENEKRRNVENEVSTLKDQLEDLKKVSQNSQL

EC50 (ROCK2 [1]): 0.447 µM
EC50 (ROCK1): 0.501 µM
IC50 (ROCK2 [2]): 0.123 µM
SMILES: O=C(Nc1cn[nH]c1-c1ccccn1)c1nn(C2CCNCC2)cc1Cl [BDP5290, 4-chloro-1-(4-piperidyl)-N-[5-(2-pyridyl)-1H-pyrazol-4-yl]pyrazole-3-carboxamide]
